pIC50: −log10 of the molar value.
target: SARS2 protease (Severe acute respiratory syndrome coronavirus 2, UniProt P0DTD1); assay: SARS-CoV-2 protease inhibition assay (SARS2 FRET protease assay); format: biochemical; conditions: SARS-CoV-2 protease 25 nM, FRET, peptide substrate 1.3 μM, 30 minutes at 30° C., compounds 20 μM to 1.0 nM; read-out: IC50

Q: How did the pIC50 turn out when `CC(C)(c1cccc(Cl)c1)C(OC(=O)N[C@@H](CC1CCCCC1)C(=O)N[C@@H](C[C@@H]1CCNC1=O)C(=O)C(=O)NC1CC1)c1ccc(F)cc1` (stereo partly drawn) [Compound C144, 2-(3-Chlorophenyl)-1-(4-fluorophenyl)-2-methylpropyl ((S)-3-cyclohexyl-1-(((S)-4-(cyclopropylamino)-3,4-dioxo-1-((S)-2-oxopyrrolidin-3-yl)butan-2-yl)amino)-1-oxopropan-2-yl) carbamate] was run?
A: The pIC50 was 5.69.

Q: `CC(C)C(C)(C)C(NC(=O)OCc1ccccc1)C(=O)N[C@H](C=O)C[C@@H]1CCNC1=O` (stereo partly drawn) [Compound C118, Benzyl (3,3,4-trimethyl-1-oxo-1-(((S)-1-oxo-3-((S)-2-oxopyrrolidin-3-yl)propan-2-yl)amino)pentan-2-yl)carbamate] was tested. Which pIC50 did it give?
A: Its pIC50 is 6.06.

Q: `CCOP(=O)(OCC)C(O)[C@H](CCC(=O)N1CCNCc2ccccc21)NC(=O)[C@H](CC1CCCCC1)NC(=O)OCc1cccc(Cl)c1` (some centres unmarked) [Compound C3] was tested. Which pIC50 did it give?
A: The pIC50 was < 3.70.

Q: `CCCOC(=O)N[C@@H](CC1CCCCC1)C(=O)N[C@H](C=O)CCC(=O)N1CCOc2ccccc2C1` [Compound C18, Propyl ((S)-3-cyclohexyl-1-(((S)-5-(2,3-dihydrobenzo[f][1,4]oxazepin-4(5H)-yl)-1,5-dioxopentan-2-yl)amino)-1-oxopropan-2-yl)carbamate] was tested. Which pIC50 did it give?
A: The pIC50 was 4.31.

Q: `CCOP(=O)(OCC)C(O)[C@H](CC1CCNC1=O)NC(=O)[C@H](Cc1ccccc1)NC(=O)OCc1cccc(Cl)c1` (some centres unmarked) [Compound C36] was tested. Which pIC50 did it give?
A: The pIC50 was 5.60.

Q: How did the pIC50 turn out when `CCCCCOC(=O)N[C@@H](CC1CCCCC1)C(=O)N[C@H](C=O)CCC(=O)N1CCOc2ccccc2C1` [Compound C16, Pentyl ((S)-3-cyclohexyl-1-(((S)-5-(2,3-dihydrobenzo[f][1,4]oxazepin-4(5H)-yl)-1,5-dioxopentan-2-yl)amino)-1-oxopropan-2-yl)carbamate] was run?
A: The pIC50 was 4.42.

Q: How did the pIC50 turn out when `CC(C)(C1CCCCC1)C(NC(=O)OCc1ccccc1)C(=O)N[C@H](C=O)C[C@@H]1CCNC1=O` (stereo partly drawn) [Compound C140, Benzyl (3-cyclohexyl-3-methyl-1-oxo-1-(((S)-1-oxo-3-((S)-2-oxopyrrolidin-3-yl)propan-2-yl)amino)butan-2-yl)carbamate] was run?
A: The pIC50 was 6.39.

Q: `COc1cccc(CC2(OC(=O)N[C@@H](CC(C)C)C(=O)N[C@@H](C[C@@H]3CCNC3=O)C(O)S(=O)(=O)O)CC2)c1` (stereo partly drawn) [Compound C49, (2S)-1-Hydroxy-2-((S)-2-(((1-(3-methoxybenzyl)cyclopropoxy)carbonyl)amino)-4-methylpentanamido)-3-((S)-2-oxopyrrolidin-3-yl)propane-1-sulfonate] was tested. Which pIC50 did it give?
A: Its pIC50 is 6.58.

Q: With `CC(C)C[C@H](NC(=O)OC1(Cc2ccccc2)CCC1)C(=O)N[C@@H](C[C@@H]1CCNC1=O)C(=O)CCl` [Compound C194, 1-Benzylcyclobutyl ((S)-1-(((S)-4-chloro-3-oxo-1-((S)-2-oxopyrrolidin-3-yl)butan-2-yl)amino)-4-methyl-1-oxopentan-2-yl) carbamate] as the compound, how does the pIC50 read?
A: Its pIC50 is 6.31.

Q: `CC(C)C[C@H](NC(=O)OC(Cc1ccccc1)c1ccccc1)C(=O)N[C@@H](C[C@@H]1CCNC1=O)C(=O)C(=O)N1CCN(C(=O)OC(C)(C)C)CC1` (some centres unmarked) [Compound C280] was tested. Which pIC50 did it give?
A: Its pIC50 is < 4.70.

Q: With `CC(C)(c1cccc(Cl)c1)C(OC(=O)N[C@@H](Cc1ccccc1)C(=O)N[C@@H](C[C@@H]1CCNC1=O)C(=O)C(=O)NC1CC1)c1ccccc1` (some centres unmarked) [Compound C284] as the compound, how does the pIC50 read?
A: Its pIC50 is 5.80.

Q: With `CC1(C)CC(CC(NC(=O)[C@H](CC2CCCCC2)NC(=O)OC(c2cccc(F)c2)C(C)(C)c2cccc(Cl)c2)C(=O)C(=O)NC2CC2)C(=O)N1` (stereo partly drawn) [Compound C205, 2-(3-Chlorophenyl)-1-(3-fluorophenyl)-2-methylpropyl ((2S)-3-cyclohexyl-1-((4-(cyclopropylamino)-1-(5,5-dimethyl-2-oxopyrrolidin-3-yl)-3,4-dioxobutan-2-yl)amino)-1-oxopropan-2-yl)carbamate] as the compound, how does the pIC50 read?
A: The pIC50 was 5.59.

Q: With `CC(=O)N1CCC2(CC1)CC(CC(C=O)NC(=O)[C@H](CC1CCCCC1)NC(=O)c1cc3cc(Cl)ccc3[nH]1)C(=O)N2` (stereo partly drawn) [Compound C141, N-((2S)-1-((1-(8-acetyl-2-oxo-1,8-diazaspiro[4.5]decan-3-yl)-3-oxopropan-2-yl)amino)-3-cyclohexyl-1-oxopropan-2-yl)-5-chloro-1H-indole-2-carboxamide] as the compound, how does the pIC50 read?
A: The pIC50 was 7.51.

Q: `CC(C)C[C@H](NC(=O)O[C@@H](c1ccccc1)C(C)(C)c1cccc(Cl)c1)C(=O)N[C@H](C=O)C[C@@H]1CCNC1=O` [Compound C275] was tested. Which pIC50 did it give?
A: Its pIC50 is 7.70.

Q: How did the pIC50 turn out when `CC1(C)CC(CC(C=O)NC(=O)[C@H](CC2CCCCC2)NC(=O)OC(c2cccc(F)c2)C(C)(C)c2cccc(Cl)c2)C(=O)N1` (stereo partly drawn) [Compound C222, 2-(3-Chlorophenyl)-1-(3-fluorophenyl)-2-methylpropyl ((2S)-3-cyclohexyl-1-((1-(5,5-dimethyl-2-oxopyrrolidin-3-yl)-3-oxopropan-2-yl)amino)-1-oxopropan-2-yl)carbamate] was run?
A: Its pIC50 is 6.63.

Q: How did the pIC50 turn out when `CCCC[C@H](NC(=O)OC(c1ccccc1)C(C)(C)c1cccc(Cl)c1)C(=O)N[C@@H](CC1CCNC1=O)C(=O)C(N)=O` (stereo partly drawn) [Compound C164, 2-(3-Chlorophenyl)-2-methyl-1-phenylpropyl ((S)-1-(((S)-4-amino-3,4-dioxo-1-((S)-2-oxopyrrolidin-3-yl)butan-2-yl)amino)-1-oxohexan-2-yl) carbamate] was run?
A: Its pIC50 is 6.84.

Q: How did the pIC50 turn out when `CC(C)C[C@H](NC(=O)OC(Cc1ccccc1)C1CCCCC1)C(=O)N[C@H](C=O)C[C@@H]1CCNC1=O` (stereo partly drawn) [Compound C237, 1-Cyclohexyl-2-phenylethyl ((S)-4-methyl-1-oxo-1-(((S)-1-oxo-3-((S)-2-oxopyrrolidin-3-yl)propan-2-yl)amino)pentan-2-yl)carbamate] was run?
A: The pIC50 was 8.52.

Q: How did the pIC50 turn out when `CC(C[C@@H](C=O)NC(=O)[C@H](CC1CCCCC1)NC(=O)OCc1cccc(Cl)c1)C(=O)N1CCOc2ccccc2C1` (stereo partly drawn) [Compound C29, 3-Chlorobenzyl ((2S)-3-cyclohexyl-1-(((2S)-5-(2,3-dihydrobenzo[f][1,4]oxazepin-4(5H)-yl)-4-methyl-1,5-dioxopentan-2-yl)amino)-1-oxopropan-2-yl)carbamate] was run?
A: Its pIC50 is < 3.70.

Q: How did the pIC50 turn out when `O=CC(CC1CC(Cc2ccccc2)NC1=O)NC(=O)[C@H](CC1CCCCC1)NC(=O)OCc1cccc(Cl)c1` (stereo partly drawn) [Compound C52, 3-Chlorobenzyl ((2S)-1-((1-(5-benzyl-2-oxopyrrolidin-3-yl)-3-oxopropan-2-yl)amino)-3-cyclohexyl-1-oxopropan-2-yl)carbamate] was run?
A: The pIC50 was 6.30.

Q: With `CC(C)C[C@H](NC(=O)OC1CCCC1Cc1cccc(Cl)c1)C(=O)N[C@@H](C[C@@H]1CCNC1=O)C(=O)C(=O)NC1CC1` (stereo partly drawn) [Compound C196, 2-(3-Chlorobenzyl)cyclopentyl ((S)-1-(((S)-4-(cyclopropylamino)-3,4-dioxo-1-((S)-2-oxopyrrolidin-3-yl)butan-2-yl)amino)-4-methyl-1-oxopentan-2-yl)carbamate] as the compound, how does the pIC50 read?
A: The pIC50 was 6.97.

Q: How did the pIC50 turn out when `CC(C)C[C@H](NC(=O)OC(Cc1cccc(Cl)c1)c1ccccc1)C(=O)N[C@@H](C[C@@H]1CCNC1=O)C(=O)NS(=O)(=O)C1CC1` (some centres unmarked) [Compound C249] was run?
A: Its pIC50 is < 4.70.

Q: With `CC(C)(c1cccc(Cl)c1)[C@H](OC(=O)N[C@@H](CC1CCCCC1)C(=O)N[C@@H](C[C@@H]1CCNC1=O)C(=O)C(=O)NC1CC1)c1cccc(F)c1` [Compound C185, (R)-2-(3-chlorophenyl)-1-(3-fluorophenyl)-2-methylpropyl ((S)-3-cyclohexyl-1-(((S)-4-(cyclopropylamino)-3,4-dioxo-1-((S)-2-oxopyrrolidin-3-yl)butan-2-yl)amino)-1-oxopropan-2-yl)carbamate] as the compound, how does the pIC50 read?
A: The pIC50 was 6.85.

Q: `CC(C)C[C@H](NC(=O)O[C@H](c1ccccc1)C(C)(C)c1cccc(Cl)c1)C(=O)N[C@H](C=O)C[C@@H]1CCNC1=O` [Compound C276] was tested. Which pIC50 did it give?
A: The pIC50 was 7.22.

Q: `CCOP(=O)(OCC)C(O)[C@H](CCC(=O)N1CCOc2ccccc2C1)NC(=O)[C@H](CC1CCCCC1)NC(=O)OC1CCN(C(=O)OC(C)(C)C)CC1` (stereo partly drawn) [Compound C13, Tert-butyl 4-((((2S)-3-cyclohexyl-1-(((2S)-1-(diethoxyphosphoryl)-5-(2,3-dihydrobenzo[f][1,4]oxazepin-4(5H)-yl)-1-hydroxy-5-oxopentan-2-yl)amino)-1-oxopropan-2-yl)carbamoyl)oxy)piperidine-1-carboxylate] was tested. Which pIC50 did it give?
A: Its pIC50 is < 3.70.

Q: How did the pIC50 turn out when `CC(C)C[C@H](NC(=O)OC1(Cc2cccc(OCc3ccccc3)c2)CC1)C(=O)N[C@@H](CC1CCNC1=O)C(O)S(=O)(=O)O` (stereo partly drawn) [Compound C76, Sodium (2S)-2-((S)-2-(((1-(3-(benzyloxy)benzyl)cyclopropoxy)carbonyl)amino)-4-methylpentanamido)-1-hydroxy-3-((S)-2-oxopyrrolidin-3-yl)propane-1-sulfonate] was run?
A: Its pIC50 is 6.42.

Q: With `O=CC(CC1CC2(CCC2)NC1=O)NC(=O)[C@H](CC1CCCCC1)NC(=O)OCc1cccc(Cl)c1` (stereo partly drawn) [Compound C229, 3-Chlorobenzyl ((2S)-3-cyclohexyl-1-oxo-1-((1-oxo-3-(6-oxo-5-azaspiro[3.4]octan-7-yl)propan-2-yl)amino)propan-2-yl)carbamate] as the compound, how does the pIC50 read?
A: The pIC50 was 9.10.

Q: `O=C(N[C@@H](CC1CCCCC1)C(=O)N[C@@H](C[C@@H]1CCNC1=O)C(=O)C(=O)NC1CC1)OCc1cccc(Cl)c1` [Compound C154, 3-Chlorobenzyl ((S)-3-cyclohexyl-1-(((S)-4-(cyclopropylamino)-3,4-dioxo-1-((S)-2-oxopyrrolidin-3-yl)butan-2-yl)amino)-1-oxopropan-2-yl)carbamate] was tested. Which pIC50 did it give?
A: Its pIC50 is 5.83.

Q: How did the pIC50 turn out when `CC(C)C[C@H](NC(=O)OC(Cc1cccc(Cl)c1)c1ccccc1)C(=O)N[C@@H](C[C@@H]1CCNC1=O)C(=O)C(=O)NC1CC1` (stereo partly drawn) [Compound C147, 2-(3-Chlorophenyl)-1-phenylethyl ((S)-1-(((S)-4-(cyclopropylamino)-3,4-dioxo-1-((S)-2-oxopyrrolidin-3-yl)butan-2-yl)amino)-4-methyl-1-oxopentan-2-yl) carbamate] was run?
A: Its pIC50 is 5.52.

Q: With `CC(C)(C)C(=O)N1CCC2(CC1)CC(CC(NC(=O)[C@H](CC1CCCCC1)NC(=O)OC1CCCC1Cc1cccc(Cl)c1)C(=O)C(=O)NC1CC1)C(=O)N2` (stereo partly drawn) [Compound C210, 2-(3-Chlorobenzyl) cyclopentyl ((2S)-3-cyclohexyl-1-((4-(cyclopropylamino)-3,4-dioxo-1-(2-oxo-8-pivaloyl-1,8-diazaspiro[4.5]decan-3-yl)butan-2-yl)amino)-1-oxopropan-2-yl) carbamate] as the compound, how does the pIC50 read?
A: Its pIC50 is 5.58.
